Assay results: patent publication US20210070748A1, “INHIBITORS OF BRUTONS TYROSINE KINASE” (Pharmacyclics LLC, priority 2015, published 2021)

How the values were obtained:
Assay type in all cases: biochemical
Conditions in all cases: Table 15, C compounds; 1 μM ATP
TXK = biological target: T1, TXK (Homo sapiens, UniProt P42681); assay: Inhibition of a panel of kinases, in vitro HotSpot kinase assay: TXK
T1 sequence (P42681 1-527): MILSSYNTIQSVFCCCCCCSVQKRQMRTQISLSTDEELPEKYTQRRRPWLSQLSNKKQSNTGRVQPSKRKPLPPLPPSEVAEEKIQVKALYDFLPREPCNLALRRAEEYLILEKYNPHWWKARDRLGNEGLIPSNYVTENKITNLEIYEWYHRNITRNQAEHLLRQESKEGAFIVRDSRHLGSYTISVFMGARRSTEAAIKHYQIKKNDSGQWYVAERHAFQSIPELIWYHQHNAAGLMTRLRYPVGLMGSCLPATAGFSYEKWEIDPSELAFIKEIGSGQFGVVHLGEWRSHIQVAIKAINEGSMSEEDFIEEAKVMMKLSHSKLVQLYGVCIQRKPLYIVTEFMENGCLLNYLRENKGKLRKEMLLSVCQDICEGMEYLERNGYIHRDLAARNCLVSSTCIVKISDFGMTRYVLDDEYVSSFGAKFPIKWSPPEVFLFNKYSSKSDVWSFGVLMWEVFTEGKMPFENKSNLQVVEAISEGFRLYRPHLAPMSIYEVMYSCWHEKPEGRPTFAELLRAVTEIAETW
Method: (§1) The degree of inhibition of a panel of kinases is determined using the in vitro HotSpot kinase assay (purified enzymes, ^33P-ATP, an appropriate substrate and 1 μM ATP).

TEC = biological target: T2, TEC (Homo sapiens, UniProt P42680); assay: Inhibition of a panel of kinases, in vitro HotSpot kinase assay: TEC
T2 sequence (P42680 1-631): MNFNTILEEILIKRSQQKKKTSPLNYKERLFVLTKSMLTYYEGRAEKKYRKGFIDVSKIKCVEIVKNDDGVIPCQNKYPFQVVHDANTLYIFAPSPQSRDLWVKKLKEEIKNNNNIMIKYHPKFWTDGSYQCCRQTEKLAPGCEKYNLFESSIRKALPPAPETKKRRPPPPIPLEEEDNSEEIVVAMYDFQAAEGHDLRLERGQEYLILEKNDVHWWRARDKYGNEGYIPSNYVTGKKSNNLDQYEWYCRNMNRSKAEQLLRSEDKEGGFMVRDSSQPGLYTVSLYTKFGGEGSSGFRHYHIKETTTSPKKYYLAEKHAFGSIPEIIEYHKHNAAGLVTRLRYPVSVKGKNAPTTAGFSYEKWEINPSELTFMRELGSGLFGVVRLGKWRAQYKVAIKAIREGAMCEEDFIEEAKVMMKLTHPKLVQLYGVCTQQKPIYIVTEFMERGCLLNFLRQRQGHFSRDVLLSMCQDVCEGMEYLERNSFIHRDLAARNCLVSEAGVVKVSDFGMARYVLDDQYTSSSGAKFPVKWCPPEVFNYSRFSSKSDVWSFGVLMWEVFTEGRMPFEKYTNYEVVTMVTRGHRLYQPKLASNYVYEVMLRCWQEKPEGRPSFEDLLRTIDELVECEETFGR
Method: as §1

ITK = biological target: T3, ITK (Homo sapiens, UniProt Q08881); assay: Inhibition of a panel of kinases, in vitro HotSpot kinase assay: ITK
T3 sequence (Q08881 1-620): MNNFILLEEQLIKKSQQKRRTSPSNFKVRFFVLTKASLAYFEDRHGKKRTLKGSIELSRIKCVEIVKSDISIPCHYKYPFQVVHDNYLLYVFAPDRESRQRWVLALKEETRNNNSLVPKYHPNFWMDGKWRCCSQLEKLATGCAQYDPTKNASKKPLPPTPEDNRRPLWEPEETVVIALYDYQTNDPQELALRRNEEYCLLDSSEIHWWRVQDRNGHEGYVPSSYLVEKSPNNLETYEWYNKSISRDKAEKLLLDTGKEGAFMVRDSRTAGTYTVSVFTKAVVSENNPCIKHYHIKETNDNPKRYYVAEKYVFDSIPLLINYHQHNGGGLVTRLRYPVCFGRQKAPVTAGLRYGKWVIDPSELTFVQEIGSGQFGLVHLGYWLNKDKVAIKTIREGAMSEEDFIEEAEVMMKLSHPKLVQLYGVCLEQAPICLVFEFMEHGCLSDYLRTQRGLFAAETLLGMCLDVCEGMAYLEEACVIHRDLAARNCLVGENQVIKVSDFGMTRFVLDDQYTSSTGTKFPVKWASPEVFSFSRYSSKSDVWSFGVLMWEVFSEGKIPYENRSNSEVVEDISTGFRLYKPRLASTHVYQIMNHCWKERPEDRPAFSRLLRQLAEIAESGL
Method: as §1

| IC50 (TXK) | IC50 (TEC) | IC50 (ITK) | Compound |
| --- | --- | --- | --- |
| ≤ 10 nM | ≤ 10 nM | ≤ 10 nM | C=CC(=O)N1CC[C@@H](N(C)c2nnc(C(N)=O)c(Nc3ccc(C(C)C)cc3)n2)C1 [Example C-41, (R)-3-((1-acryloylpyrrolidin-3-yl)(methyl)amino)-5-(4-isopropylphenylamino)-1,2,4-triazine-6-carboxamide] |
| ≤ 10 nM | ≤ 10 nM | ≤ 10 nM | C=CC(=O)N1CCC[C@@H](Nc2nnc(C(N)=O)c(Nc3ccc(C4CCN(C(=O)CC)CC4)cc3)n2)C1 [Example C-57, (R)-3-(1-acryloylpiperidin-3-ylamino)-5-(4-(1-propionylpiperidin-4-yl)phenylamino)-1,2,4-triazine-6-carboxamide] |

| Compound | IC50 (TXK) | IC50 (TEC) | IC50 (ITK) |
| --- | --- | --- | --- |
| C=CC(=O)N1CCC[C@@H](N(C)c2cnc(C(N)=O)c(Nc3ccc(C4(C)CCN(C5CCCC5)CC4)cc3)n2)C1 [Example C-44, (R)-5-((1-acryloylpiperidin-3-yl)(methyl)amino)-3-(4-(1-cyclopentyl-4-methylpiperidin-4-yl)phenylamino) pyrazine-2-carboxamide] | ≤ 10 nM | ≤ 10 nM | ≤ 10 nM |
